pIC50: −log10 of the molar value.
Experiments:
5-Lipoxygenase = target: T1, 5-Lipoxygenase (Homo sapiens, UniProt P09917); test: Inhibition of 5-Lipoxygenase in Human Whole Blood (LTB4, calcium ionophore A23187); format: cell-based; conditions: 1 μM
T1 construct: endogenous in cells; host or cells: human whole blood from male donors (results expressed per 10^6 neutrophils)
T1 sequence (P09917 1-674): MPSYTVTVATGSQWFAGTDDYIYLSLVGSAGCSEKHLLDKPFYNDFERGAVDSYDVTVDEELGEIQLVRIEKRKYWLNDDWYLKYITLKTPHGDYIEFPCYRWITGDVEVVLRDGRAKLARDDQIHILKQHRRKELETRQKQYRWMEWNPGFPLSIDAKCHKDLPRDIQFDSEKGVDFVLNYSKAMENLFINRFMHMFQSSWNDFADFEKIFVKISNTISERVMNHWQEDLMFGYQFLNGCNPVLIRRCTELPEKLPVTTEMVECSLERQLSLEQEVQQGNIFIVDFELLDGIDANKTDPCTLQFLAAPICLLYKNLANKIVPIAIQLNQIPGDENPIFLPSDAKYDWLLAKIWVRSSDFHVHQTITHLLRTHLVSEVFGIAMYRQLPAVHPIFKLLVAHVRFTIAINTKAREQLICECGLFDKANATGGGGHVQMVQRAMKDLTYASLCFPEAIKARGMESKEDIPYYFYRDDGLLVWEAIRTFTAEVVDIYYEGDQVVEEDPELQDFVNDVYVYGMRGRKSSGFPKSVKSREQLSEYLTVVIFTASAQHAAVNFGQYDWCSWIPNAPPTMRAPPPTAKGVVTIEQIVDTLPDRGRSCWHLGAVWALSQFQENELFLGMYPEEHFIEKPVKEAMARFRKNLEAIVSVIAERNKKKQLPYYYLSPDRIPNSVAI
Protocol: 1. Inhibition of 5-Lipoxygenase in Human Whole Blood
Blood is obtained in 50-100 ml quantities from male donors. White blood cell counts and differentials are made. Two ml of blood are placed in a 15 ml polypropylene test tube. Test compounds are solubilized in dimethylsulfoxide and diluted in 1:10 in 10% bovine serum albumin in phosphate buffered saline, pH 7.4 resulting in a final dimethylsulfoxide concentration of 0.1% in the blood. Then, solutions of test compounds are added to the blood in a shaking water bath at 37° C. for 10 minutes prior to the addition of 30 μM calcium ionophore (A23 187, Sigma). After ionophore administration, whole blood samples are mixed and incubated for 20 minutes at 37° C. in a shaking water bath. Incubation is terminated by placing samples in an ice bath and immediately adding ethylene glycol-bis-(β-aminoethyl ether)-N,N,N',N'-tetraaceticacid (10 mM). Samples are mixed and centrifuged at 1200 x g for 15 minutes at 4° C. Preparation of samples for evaluation by RIA or ELISA is carried out by the following protocol. Plasma is removed from sample tubes, placed in 15 ml polypropylene test tubes containing 8 ml methanol, and then vortexed to precipitate protein. Samples are stored at -70° C. overnight. The next day, samples are centrifuged at 200 x g for 15 minutes at 4° C. to pellet the precipitate. Samples are dried in a Savant SpeedVac Concentrator, Model SVC 200H, reconstituted to original volume with ice cold RIA or ELISA buffer, and stored at -70° C. until assayed. The assay for eicosanoids (LTB4, TxB2, and PGE2) is performed as described by the manufacturer of the [^3 H]-RIA kit or ELISA kit (LTB4 -Amersham, TxB2 and PGE2 -Caymen Chemical).
The total eicosanoid level in 2 ml of blood is calculated and reported as ng/10^6 neutrophils. Significance is determined by a one-way analysis of variance with least significant difference (LSD) comparisons to control (p≤0.05) and IC50 's (μM) are determined by regression analysis (Finney, 1978). Drug effects are expressed as percent change from control values.

[1] = tested on: low density lipoprotein (LDL); test: Inhibition of Copper Ion Mediated Oxidation of Low Density Lipoprotein; format: biochemical; conditions: Cu^+2 mediated oxidation of rabbit or monkey LDL; 37° C., 90 minutes; absorbance at 532 nm
Protocol: 5. Inhibition of Copper Ion Mediated Oxidation of Low Density Lipoprotein
In this in vitro assay, the inhibition of Cu^+2 mediated oxidation of rabbit or monkey LDL by an invention compound is determined spectrophotometricallly. Oxidation of LDL results in the formation of LDL-diene which absorbs light at 532 nm. Inhibition of oxidation of LDL leads to a decrease in absorbance at 532 nm.
Rabbit or monkey LDL is prepared according to the procedures of Havel, Eder and Gragdon, "The Distribution and Chemical Composition of Ultracentrifugally Separated Lipoproteins in Human Serum,: J. Clin. Invest. 34, 1345-1353 (1955) and Parhtasarathy, Wieland and Steriberg, "A Role for Endothelial Cell Lipoxygenase in the Oxidative Modification of Low Density Lipoprotein," Proc. Natl. Acad. Sci. USA 86, 1046-1050 (1989). Test compound solutions are prepared by dissolving the invention compounds in ethanol at concentrations up to 248 μM. The medium used is Dulbecco's phosphate buffered saline containing 0.5 mg/ml bovine serum albumin. For standards, 0 to 10 μl of an aqueous solution of 1,1,3,3-tetraethoxypropane (1 μmol/ml H2 O) in 4.1 ml of medium is used.
Test compound solution (100 μl) is added to 4 ml of medium in incubation tubes. To each tube is added 10 μl of LDL solution and 25 μl of aqueous copper sulfate solution (1.32 mg/ml H2 O). The tubes are incubated at 37° C. for 90 minutes and the oxidation reaction quenched by addition of 1 ml of thiobarbituric acid solution (0.67% in 50% acetic acid). The tubes are heated at 90° C. for 1 hour, then chilled in an ice bath and the chromophore extracted into 2 ml of n-butanol. Absorbence is read at 532 nm and the results are reported as nmols of malondialdehyde equivalents.
Significant differences (p<0.05) are determined by the Dunnett T-test or by the Student-Newman-Keuls Test for significant differences between means. The assay is conducted using several concentrations [I] of the inhibitor test compounds. […] The IC50 is determined by non-linear regression, plotting log [I] vs. % inhibition. […]

Row | Structure (SMILES) | inhibition at 1 µM (5-Lipoxygenase) | pIC50 [1]
1 | Cc1oc(-c2ccccc2)nc1COc1cccc(CN(O)C(N)=O)c1 [Example 1, 1-Hydroxy-1-[3-(5-methyl-2-phenyl-oxazol-4-ylmethoxy)-benzyl]-urea] | 52% | 6.19
2 | NC(=O)N(O)Cc1cccc(OCc2csc(-c3ccccc3)n2)c1 [Example 5, 1-Hydroxy-1-[3-(2-phenyl-thiazol-4-ylmethoxy)-benzyl]-urea] | 66% | –
3 | NC(=O)N(O)Cc1cccc(OCc2csc(-c3ccc(Cl)cc3)n2)c1 [Example 6, 1-Hydroxy-1-[3-[2-(4-chloro-phenyl)-thiazol-4-ylmethoxy]-benzyl]-urea] | 68% | 6.23
4 | Cc1oc(-c2ccc(F)cc2)nc1COc1cccc(CN(O)C(N)=O)c1 [Example 9, 1-[3-[2-(4-fluorophenyl)-5-methyl-oxazol-4-ylmethoxy]-benzyl]-1-hydroxy-urea] | 74% | 6.24
5 | Cc1oc(-c2ccccc2)nc1COc1cc(F)cc(CN(O)C(N)=O)c1 [Example 13, 1-[3-Fluoro-5-(5-methyl-2-phenyl-oxazol-4-ylmethoxy)-benzyl]-1-hydroxy-urea] | 70% | –
